Results taken from paper PMC11662004 (Communications Chemistry, 2024).
Several values for one entry are separate records, joined by “and”; a condition that tells them apart may be missing. Equal entries are not always repeated. Where two headings read alike, the source gives them in different places.

Experiments:
[1] = tested on: TET2CDΔLCI; assay: Continuous reaction monitoring (1H NMR), 2OG decarboxylation; assay type: biochemical, human; settings: Supp Fig 10 a
Experimental: Double-stranded DNA oligomers were added at a final concentration of 20 µM. Data plotted from two independent replicates (n = 2). Initial rates reported as the mean of two independent replicates (n = 2). TEXT PRINTED IN THE PICTURE: (c) No DNA: V0 (μM min^−1) NgTet1: 0.36; V0 (μM min^−1) TET2: 1.28; Relative V0 NgTet1: 1; Relative V0 TET2: 1 | (c) ^5HC DNA: V0 (μM min^−1) NgTet1: 1.30; V0 (μM min^−1) TET2: 6.34; Relative V0 NgTet1: 3.6; Relative V0 TET2: 5.0 | (c) AT DNA: V0 (μM min^−1) NgTet1: 0.82; V0 (μM min^−1) TET2: 5.78; Relative V0 NgTet1: 2.3; Relative V0 TET2: 4.5 | (c) ^5mC DNA: V0 (μM min^−1) NgTet1: 1.52; V0 (μM min^−1) TET2: 6.79; Relative V0 NgTet1: 4.2; Relative V0 TET2: 5.3
(§1) All ^1H NMR spectra were recorded at 25 °C using D2O as a reference for internal deuterium lock on a Bruker Avance III 700 MHz equipped with an inverse TCI cryoprobe in 3 or 5 mm diameter tubes with a total sample volume of 160 or 565 μL, respectively. The water signal was reduced using Perfect Echo excitation sculpting suppression. Chemical shifts are reported in ppm relative to D2O (δH = 4.70 ppm).
Spectrometer settings were determined using a control sample containing all reaction components excluding enzyme. TET enzyme was added to an identical sample, and the resulting assay mixture was transferred to an NMR tube before deposition into the instrument. […] Data acquisition was started following a brief spectrometer setting optimisation (up to 200 s delay between enzyme addition and data acquisition); 8–32 scans were accumulated for a single spectrum, corresponding to 65–179 s of acquisition time. Spectrum recordings were carried out consecutively without delay. Data were processed using automated routines on MestReNova v14.2.0; signals of interest were integrated with absolute intensity scaling. ^1H NMR time courses reported in figures are representative results from two or three independent replicates.

[2] = molecular target: T1, NgTet1 (Naegleria gruberi, UniProt D2W6T1); assay: biochemical; settings: for normalised activity: NgTet1, NMR, 2 independent replicates; for IC50: 5 μM NgTet1, 50 μM 2OG; for normalised activity, %: NMR
T1 construct: His6-tagged full-length Naegleria gruberi NgTet1 (321 a. a.) protein with a thrombin cleavage site; made in house; host or cells: E. coli BL21(DE3)
T1 sequence (D2W6T1 1-321): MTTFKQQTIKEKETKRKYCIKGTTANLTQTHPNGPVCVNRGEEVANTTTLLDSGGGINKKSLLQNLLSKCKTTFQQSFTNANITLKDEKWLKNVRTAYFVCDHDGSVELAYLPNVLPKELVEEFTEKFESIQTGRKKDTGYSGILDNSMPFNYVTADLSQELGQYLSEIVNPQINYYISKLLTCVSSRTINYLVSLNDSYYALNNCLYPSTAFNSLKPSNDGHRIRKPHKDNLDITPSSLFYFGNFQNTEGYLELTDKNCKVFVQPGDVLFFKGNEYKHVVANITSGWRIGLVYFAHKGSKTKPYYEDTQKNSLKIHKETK
Experimental: Activity was normalised against reactions containing vehicle (DMSO). […] AS data shown as the mean of three experimental replicates (n = 3; mean ± SD); ^1H NMR data plotted from two independent replicates (n = 2); tabulated data reported as the mean of two and three independent replicates for ^1H NMR and AS, respectively (n = 2–3, SD reported for n = 3). N. d.: not determined; AS: AlphaScreen.
as §1
NgTet1 was pre-incubated with inhibitor dilution series in DMSO-d6 at room temperature for 10 min (50 mM Tris-d11 [pH 7.5], 2% v/v DMSO-d6). Reactions were initiated by the addition of appropriate cofactors and DNA. […] The reactions were quenched by the addition of 9 mM NOG and 9 mM ZnCl2 in 90 mM Tris-d11 [pH 7.5] (20 μL) within the enzyme linear activity window (determined in Figure. S10). Samples were transferred to NMR tubes and subjected to ^1H NMR analysis. Data were processed as described above. Inhibition data was normalised to reactions containing vehicle only (1% v/v DMSO-d6) and fitted using “log(inhibitor) vs. response - Variable slope (four parameters)” non-linear regression model on GraphPad Prism 5.
Activity was normalised against reactions containing vehicle only (100% activity). Data is shown as the mean of 2 independent replicates (n = 2; […]
Fig. S10 Determination of linear NgTet1 enzymatic activity windows for inhibitor characterisation. a 1H NMR succinate detection time courses with no DNA, 5HC DNA (double- […]
complementary 5'-ACC AC5mC GGT GGT-3'). b AlphaScreen 5hmC detection time course using […]
courses shown. 1H NMR reaction conditions: 5 μM NgTet1, 2 mM sodium L-ascorbate, 100 μM […]
v/v D2O. DNA was added to a final concentration of 20 μM of double-stranded DNA. […]

[3] = molecular target: T1, NgTet1; assay: End-point analysis for tandem activity detection (SPE-MS); assay type: biochemical; settings: 5 µM NgTet1, 20 µM DNA, SPE-MS (Fig. S4)
Experimental: SPE-MS spectra were recorded on an Agilent RapidFire 365 High-throughput Mass Spectrometry system coupled to an Agilent 6550 iFunnel Q-TOF mass spectrometer following reported procedures[33],[34]. A RapidFire C4 (type A) solid-phase extraction (SPE) cartridge (Agilent, Cat#: G9203A) was used for analyte separation. A binary solvent system was used. Solvent A: 6 mM octylammonium acetate (prepared as described previously)[45] in H2O; solvent B: 80% v/v MeCN in H2O. Samples were aspirated into the sample loop using vacuum (40 μL) from a 96/384-well plate and loaded directly onto the SPE cartridge. The cartridge was washed with solvent A (4,000 ms, 1.5 mL min^−1), and the analyte was eluted with solvent B (4000 ms; 1.25 mL min^−1) onto the Q-TOF MS. Following each sample injection, the SPE cartridge was flushed with 3–6 cycles of H2O and MeCN to remove residual analyte before re-equilibration into solvent A. Q-TOF settings for DNA oligomer analysis were as follows: drying gas temperature: 280 °C; drying gas flow: 13 L min^−1; nebuliser gas pressure: 40 psig; sheath gas temperature: 350 °C; sheath gas flow: 12 L min^−1; capillary voltage (Vcap): 4000 V; nozzle voltage: 0 V; fragmentor voltage: 250 V; spectrum acquisition rate: 5 Hz. Data was processed using Agilent MassHunter Qualitative Analysis™ (B.07.00) and RapidFire Integrator software.
The samples were analysed by SPE-MS. […]

Work on “5HC DNA: non-methylated DNA of the same sequence, 5'-ACC ACC GGT GGT-3', non-substrate (DNA ACCACCGGTGGT; DNA, backbone not given here)” yielded a succinate ([1]; Time 0 min) of 2.2 µM, a succinate ([1]; Time 2.5 min) of 3.9 µM and a succinate ([1]; Time 5 min) of 6.5 µM. It also gave a succinate ([1]; Time 7.5 min) of 9.5 µM, a succinate ([1]; Time 10 min) of 12.4 µM and a succinate ([1]; Time 15 min) of 17.3 µM. For the same molecule, the succinate ([1]; Time 20 min) was 21.5 µM, the “uncoupled 2OG decarboxylase activity relative to control” value ([2]; 1.2 equivalents (6.17 μM) of ligand, no 5mC DNA substrate) was 188% and the normalised activity ([2]; -Log[inhibitor] (M) 3.77815) was 173.555% and 199.834%. For the same molecule, the normalised activity ([2]; -Log[inhibitor] (M) 4.25527) was 239.054% and 238.734%, the normalised activity ([2]; -Log[inhibitor] (M) 4.73239) was 235.651% and 234.615% and the normalised activity ([2]; -Log[inhibitor] (M) 5.20951) was 188.852% and 186.764%. For the same molecule, the normalised activity ([2]; -Log[inhibitor] (M) 5.68664) was 131.036% and 130.504%, the normalised activity ([2]; -Log[inhibitor] (M) 6.16376) was 99.9166% and 102.373% and the normalised activity ([2]; -Log[inhibitor] (M) 6.64088) was 99.5022% and 101.543%. For the same molecule, the normalised activity ([2]; -Log[inhibitor] (M) 7.118) was 100.648% and 101.556%, the normalised activity ([2]; -Log[inhibitor] (M) 7.59512) was 99.7851% and 102.052% and the normalised activity ([2]; -Log[inhibitor] (M) 8.07224) was 101.874% and 100.284%. For the same molecule, the “enzymatic oxidation by NgTet1” value [3] was “did not undergo enzymatic oxidation”.

In the case of O=C(O)CNC(=O)C(=O)O [NOG, N-oxalylglycine], the “potency reduced in the presence of non-substrate 5HC DNA” value ([2]; 1H NMR, uncoupled 2OG turnover) is reported as 5 fold, the IC50 ([2]; 2OG decarboxylation with 20 µM 5HC DNA, read-out: IC50, 5HC DNA, NMR) is reported as 23.4 µM and the IC50 ([2]; 2OG decarboxylation with 20 µM 5mC DNA, read-out: IC50, 5mC DNA, NMR) is reported as 4.9 µM. The “normalised activity, %” value ([2]; 5HC DNA, -Log[inhibitor] (M) 3) was 9.08% and 0%, the “normalised activity, %” value ([2]; 5HC DNA, -Log[inhibitor] (M) 3.5) was 14.96% and 8.89% and the “normalised activity, %” value ([2]; 5HC DNA, -Log[inhibitor] (M) 4) was 27.44% and 19.98%. For the same molecule, the “normalised activity, %” value ([2]; 5HC DNA, -Log[inhibitor] (M) 4.5) was 46.19% and 37.58%, the “normalised activity, %” value ([2]; 5HC DNA, -Log[inhibitor] (M) 5) was 68.86% and 59.35% and the “normalised activity, %” value ([2]; 5HC DNA, -Log[inhibitor] (M) 5.5) was 85.6% and 77.94%. The “normalised activity, %” value ([2]; 5HC DNA, -Log[inhibitor] (M) 6) was 94.01% and 91.73%, the “normalised activity, %” value ([2]; 5HC DNA, -Log[inhibitor] (M) 6.5) was 98.78% and 94.75% and the “normalised activity, %” value ([2]; 5HC DNA, -Log[inhibitor] (M) 7) was 98.78% and 99.12%. For the same molecule, the “normalised activity, %” value ([2]; 5HC DNA, -Log[inhibitor] (M) 7.5) was 97.21% and 98.4%, the “potency improved relative to AS assay” value ([2]; 5mC DNA substrate-saturating conditions, 1H NMR) was 40 fold and the “normalised activity, %” value ([2]; 5mC DNA, -Log[inhibitor] (M) 2.47712) was 3.86% and 2.962%. For the same molecule, the “normalised activity, %” value ([2]; 5mC DNA, -Log[inhibitor] (M) 2.95424) was 3.763% and 4.321%, the “normalised activity, %” value ([2]; 5mC DNA, -Log[inhibitor] (M) 3.43136) was 5.679% and 6.122% and the “normalised activity, %” value ([2]; 5mC DNA, -Log[inhibitor] (M) 3.90849) was 9.059% and 9.958%. For the same molecule, the “normalised activity, %” value ([2]; 5mC DNA, -Log[inhibitor] (M) 4.38561) was 18.3792% and 18.5451%, the “normalised activity, %” value ([2]; 5mC DNA, -Log[inhibitor] (M) 4.86273) was 32.2896% and 33.1008% and the “normalised activity, %” value ([2]; 5mC DNA, -Log[inhibitor] (M) 5.33985) was 53.2739% and 54.7766%. For the same molecule, the “normalised activity, %” value ([2]; 5mC DNA, -Log[inhibitor] (M) 5.81697) was 75.7036% and 73.0834%, the “normalised activity, %” value ([2]; 5mC DNA, -Log[inhibitor] (M) 6.29409) was 86.8413% and 87.2847% and the “normalised activity, %” value ([2]; 5mC DNA, -Log[inhibitor] (M) 6.77) was 92.8024% and 96.8118%. The “normalised activity, %” value ([2]; 5mC DNA, -Log[inhibitor] (M) 7.25) was 100.282% and 100.776%, the “normalised activity, %” value ([2]; 5mC DNA, -Log[inhibitor] (M) 7.73) was 99.5779% and 101.189% and the “normalised activity, %” value ([2]; No DNA, -Log[inhibitor] (M) 2) was 1.894% and 2.62%. For the same molecule, the “normalised activity, %” value ([2]; No DNA, -Log[inhibitor] (M) 2.47712) was 5.905% and 12.6681%, the “normalised activity, %” value ([2]; No DNA, -Log[inhibitor] (M) 3.43136) was 23.7146% and 37.124% and the “normalised activity, %” value ([2]; No DNA, -Log[inhibitor] (M) 3.90849) was 40.5302% and 59.4882%. For the same molecule, the “normalised activity, %” value ([2]; No DNA, -Log[inhibitor] (M) 4.38561) was 74.4281% and 76.6397%, the “normalised activity, %” value ([2]; No DNA, -Log[inhibitor] (M) 4.86273) was 97.4209% and 83.0858% and the “normalised activity, %” value ([2]; No DNA, -Log[inhibitor] (M) 5.33985) was 104.499% and 99.5811%. For the same molecule, the “normalised activity, %” value ([2]; No DNA, -Log[inhibitor] (M) 5.81697) was 103.384% and 101.173%, the “normalised activity, %” value ([2]; No DNA, -Log[inhibitor] (M) 6.29409) was 102.321% and 96.0908% and the IC50 ([2]; uncoupled 2OG decarboxylation, no DNA, read-out: IC50, No DNA, NMR) was 118 µM.
